Results from paper PMC2751816, “Functional, Non-Clonal IgM^a-Restricted B Cell Receptor Interactions with the HIV-1 Envelope gp41 Membrane Proximal External Region” (PLoS ONE, 2009).
“Also recorded” adds a separate entry of the source.

Test system: protein tyrosine phosphorylation in BALB/c splenic B cells
Assay: Phosphotyrosine immunoblot of stimulated splenic B cells
Assay type: cell-based, mouse (BALB/c)
Conditions: saturating tetramer 20 µg/10^6 cells, Fig. 8A
Method: To determine if gp41 MPER interactions with IgM^a could elicit the activating signals required for biological responses, we assessed BCR-proximal signaling events in BALB/c splenic B cells ligated with gp41 MPER tetramers. First, we determined the induction of protein tyrosine phosphorylation in cells incubated with saturating concentrations (20 µg/10^6 cells; see Fig. 1b) of gp41 MPER tetramer (Fig. 8A).
5×10^6 splenic BALB/c B cells were isolated by negative depletion of CD43-expressing cells with anti-mouse CD43 MACS beads (Miltenyi Biotech) to >95% purity, as assessed by flow cytometry. Purified B cells were equilibrated to 37°C in a humidified incubator and stimulated with gp41 MPER tetramers or F(ab)'2 anti-IgM (Jackson ImmunoResearch) in 5% FBS-containing DMEM media for various times. Whole cell extracts were made by lysing cell pellets in 1% NP-40 lysis buffer supplemented with PhosSTOP and complete, mini EDTA-free protease inhibitor tablets (Roche) and insoluble cellular debris was removed by centrifugation. Extracts were fractionated by reducing SDS PAGE on Novex Bis-Tris Mini gels (Invitrogen) and transferred to Invitrolon PVDF membranes (Invitrogen) using the Xcell II blot module. Primary Abs used were anti-phosphotyrosine clone 4G10 (Upstate) and anti-GAPDH (Millipore). Secondary Abs used were goat-anti-mouse IgG1 or IgG2a, both coupled to HRP (Jackson ImmunoResearch). […]

## QQEKNEQELLELDKWASLWN [gp41 MPER tetramer, (residues 659–678 of the HIV-1 envelope)]
Lower than anti-IgM ligation of equal numbers of B cells
  protein tyrosine phosphorylation relative to anti-IgM ligation: 2- to 3 fold
Listed as gp41 MPER tetramers
  protein tyrosine phosphorylation (in words): induced rapid and reproducible patterns of protein phosphorylation; also recorded: only selected proteins were phosphorylated, including Syk, PI3K p110δ, PLC-γ2, and one or more of the Src kinase family members Lyn, Fyn, or Blk
